According to paper PMC4492750, “The discovery of a selective and potent A2a agonist with extended lung retention” (Pharmacology Research & Perspectives, 2015):
pEC50: −log10 of the molar value.

Assays:
[1] = Plasma protein binding by equilibrium dialysis; assay type: in vitro ADME; details: male, Wistar, pH 7.4, rat plasma, 10 μmol/L, read-out: fu rat (free unbound drug in plasma)
Method: (§1) • Human A2a and A2b receptor pharmacology: Chinese hamster ovary CHO-K1 cells stably expressing human A2a and A2b receptors were used to determine substances agonistic potency and intrinsic activity. […] The signal corresponding to adenosine at 100 μmol/L was used to define 100% intrinsic activity. • Human A3 receptor pharmacology: A3 receptor Gi coupling was measured by GTPγ ^35[S] filter assay at serial dilutions of compound using membranes from Perkin-Elmer. The signal corresponding to the maximal response of NECA at 100 μmol/L was set to 100% intrinsic activity. • Lipopolysaccharide (LPS)-induced TNFα production in primary human peripheral blood mononuclear cells (hTNFα PBMC) and rat mononuclears (rTNFα splenocytes): Human PBMC and rat mononuclear spleen cells were incubated with serial dilutions of compound and stimulated with LPS.
The plasma protein binding was determined in plasma from male Wistar rats at a compound concentration of 10μM by equilibrium dialysis against a phosphate buffer at pH 7.4 using a semi-permeable membrane with a molecular cut-off of 6-8KDa (Spectra/Por, Spectrum Laboratories Inc, US). The compounds were dialyzed for 18h at 37±1°C in an air incubator on an orbital shaker. The samples were analysed using LC-MS/MS.

[2] = In vivo pharmacokinetics in rats (i.v., oral, intratracheal)
Method: Rat PK was determined after an i.v. dose of 0.1μmol/kg (approximately 50μg/kg, 1ml/kg, TEG:H2O 50:50) given via a catheter in vena jugularis. The PK after oral administration was performed at a dose of 6μmol/kg (approximately 3mg/kg, 4ml/kg, 0.5% HPMC) given by gavage. Intratracheal PK was determined at 0.03 to 0.6μmol/kg (17 to 300μg/kg, 1ml/kg, in a vehicle containing sodium chloride (8.5mg/ml), EDTA (0.1mg/ml), citric acid (0.15mg/ml), sodium citrate (0.5mg/ml) and polysorbate 80 (0.2mg/mL) in purified water). The i.t. dose was given to anaesthetized (isofluran) rats, positioned at approximately 30° angle (head up) and the compound was administered in the trachea using a modified metal cannula. Rats were put back in their cages while regaining consciousness. Serial blood sampling of 100 to 200µl was performed after i.v. and p.o. dosing at pre-defined timepoints. Blood was mixed 1:4 with purified water containing heparin (10 to 30U/ml) in order to haemolyse the blood cells, and then placed in a 96-well plate and stored at –70°C until analysed. The dilution factor was accounted for in the data analysis. After i.t. dosing, animals were euthanized with isoflurane or pentobarbital at defined timepoints after dosing, blood samples taken from the vena jugularis or arteria carotis, handled and stored as described above. The rats were bled to drain as much blood as possible from the lungs. The lungs including the trachea were carefully dissected out with all non-relevant tissue removed, placed in pre-weighed vials and weighed. The lung vials were stored at –70°C until analyzed.
Lung tissue was frozen in liquid nitrogen and homogenised using a CryoPrep pneumatic hammer. The homogenisation of the tissue and the extraction of the compound were done in 4ml Ringer solution with an Adaptive Focused Acoustic Instrument. 50µl of the supernatant was transferred to a 96-well plate. All lung, blood and plasma samples were analysed by LC-MS/MS using a selective and sensitive method. Peak areas were used in comparison to those produced by the standard curve to determine parent compound concentrations. Homogenate concentrations were adjusted to account for the sample dilutions to give tissue concentrations.

[3] = test system: LPS-induced BAL neutrophils; experiment: LPS-induced lung inflammation model, neutrophils in BAL fluid; assay type: in vivo, rat; details: for Reduction of total cells and neutrophilia in BAL fluid: 10 μg/kg i.t.
Method: The efficacy of the compound on neutrophils in BAL fluid is expressed as per cent inhibition of the full window (negative veh/veh controls vs. the positive veh/LPS controls): Inhibition (%) of LPS-induced BAL neutrophils by compound 2 was calculated using the following formula: [drawing 1] where A is the average in the group administered with vehicle and challenged with LPS; B is the average in the group administered with vehicle and challenged with saline; and C is the average in the group administered with test compound and challenged with LPS.
Animals in all efficacy studies were dosed intratracheally as described above in a buffered saline vehicle (pH 5) containing sodium chloride (8.5mg/ml), citric acid (0.28mg/ml) and sodium citrate (0.5mg/ml). The compound was dissolved in saline when given intravenously (0.9% NaCl) to the swivelled rats.
[…] Each rat was given LPS from the Pseudomona Aeruginosa bacteria (1µg/rat, 5µg/ml saline, Sigma-Aldrich, Sweden).
24 hours after the LPS challenge, rats were anaesthetized and exsanguinated via a cardiac incision. A tube was inserted and ligated to the trachea. The tube was connected to a syringe with 4ml PBS (without Ca^2+/Mg^2+) and a lavage of the whole lung was performed manually. The BAL fluid was collected individually in polyethylene tubes and kept on ice until further processed.
The BAL fluid was centrifuged and the supernatant separated from the cell pellet that was resuspended in 1.0ml of PBS. The total number of cells and cell differentia was counted in an automated cell counter and haematology analyzer (SYSMEX XT-1800iV, software for the rat BALF).

adenosine A1 receptor = molecular target: T1, adenosine A1 receptor (Homo sapiens, UniProt P30542); experiment: Human A1 receptor pharmacology: GTPγ35[S] assay on membranes; assay type: biochemical; details: average (SD)
T1 construct: purchased Perkin Elmer ES-010-M400UA
T1 sequence (P30542 1-326): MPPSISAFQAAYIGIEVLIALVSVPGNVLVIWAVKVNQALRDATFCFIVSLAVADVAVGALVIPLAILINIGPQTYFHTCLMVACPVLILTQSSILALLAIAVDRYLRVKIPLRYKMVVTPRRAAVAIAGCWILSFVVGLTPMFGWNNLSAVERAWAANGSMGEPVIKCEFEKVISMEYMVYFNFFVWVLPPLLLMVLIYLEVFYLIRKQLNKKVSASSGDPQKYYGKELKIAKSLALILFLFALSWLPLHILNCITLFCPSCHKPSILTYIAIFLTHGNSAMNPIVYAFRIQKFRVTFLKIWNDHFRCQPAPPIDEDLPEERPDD
Method: as §1
The A1 receptor Gi coupling was measured by a scintillation proximity (SPA) GTPγ ^35[S] assay. Membranes (12.5μg/ml final concentration) were incubated with substances in serial dilutions (50mM Hepes, pH 7.4, 1mM MgCl2, 100mM NaCl, 0.01% BSA, 50μg/ml saponin and 2.5μM GDP) including 1mg/ml Scintillation Beads (Wheat Germ Agglutinin PVT SPA, Perkin Elmer - Rpnq0001), 0.3nM of GTPγ ^35[S] (Perkin Elmer - NEG030H) and counts were read after 16h incubation at 4 °C. The signal corresponding to adenosine at 100μM was used to define 100% efficacy.

CCNC(=O)[C@H]1O[C@@H](n2cnc3c(NC(CC)CC)nc(NCCNC(=O)Nc4cc[n+](C)cc4)nc32)[C@H](O)[C@@H]1O [Compound 2, (2S,3S,4R,5R)-N-ethyl-5-[6-(1-ethylpropylamino)-2-[2-[(1-methylpyridin-1-ium-4-yl)carbamoylamino]ethylamino]purin-9-yl]-3,4-dihydroxy-tetrahydrofuran-2-carboxamide]
fraction unbound at 18 h, 10 μM [1]: 0.44
Increase of rat lung t½ in comparison with UK-432,097 ([2]; i.t.): 13 fold
Rat blood clearance ([2]; i.v., mean of n = 3): 19 mL/min per kg
half-life ([2]; lung, inhaled or intranasal, rat, intratracheal dosing, n = 2/time point, read-out: Lung t½ (terminal half-life in lung) (converted)): 53 h
Kp at 24 h ([2]; other: intratracheal (i.t.), rat, i.t., ratio of lung concentration 24 h after dose to blood Cmax after same dose, read-out: Lung/blood split): 460
Percentage of dose remaining in lung at 24 h ([2]; rat, single i.t. dose (17 and 20 μmol/kg for compounds 2 and 3 as printed in Fig. 5), 24 h): 28%
bioavailability ([2]; whole blood, 6 umol/kg, rat, oral, mean of n = 3, read-out: Rat oral F (bioavailability)): 0.3%
Inhibition of recovered neutrophils in BAL fluid ([3]; 0.1 μg/kg i.t. single dose 24 h prior to LPS): 9%
Inhibition of recovered neutrophils in BAL fluid ([3]; 1 μg/kg i.t. single dose 24 h prior to LPS): 17%
Inhibition of recovered neutrophils in BAL fluid ([3]; 10 μg/kg i.t. for five consecutive days, LPS 24 h after last dose): 53%
Inhibition of recovered neutrophils in BAL fluid ([3]; 10 μg/kg i.t. for three consecutive days, LPS 24 h after last dose): 39%
Inhibition of recovered neutrophils in BAL fluid ([3]; 10 μg/kg i.t. single dose 24 h prior to LPS (n.s., P = 0.086)): 39%
Reduction of total cells and neutrophilia in BAL fluid ([3]; 36 and 24 h pre-treatment before LPS): significant reduction
Reduction of total cells and neutrophilia in BAL fluid ([3]; 12 h pretreatment before LPS): not significant
Maximum inhibition of neutrophil recruitment ([3]; single i.t. dose of 10 μg/kg, rodents, previous dose-response studies): 40–50%
pEC50 (adenosine A1 receptor): 5.68
